From patent US9756861B2, “Micro-colloidal silicic acid / boric acid composition and a method of preparing a bioenhancing solution and powder” (Barlaa B.V., priority 2009, dated 2017)

Test system: seeds of wheat
Procedure: Different levels of silicic acid were tested on seeds and in pot experiments to assess their effects on improvement of seed and the growth and yield in wheat.

Substance: silicic acid
- plant growth and yield (0.25% and 0.50% silicic acid application, all the varieties of wheat): highest
- rate of germination (silicic acid applied at 0.25-0.50% level, wheat seeds): increased
